Like-named read-outs stand apart in the source and are kept apart here.
Columns and labels:
Swiss male mice = test: Acute in vivo toxicity, unique IP injection; conditions: mice, from 20 mg/kg/day
Description: To evaluate the in vivo toxicity selected compounds were injected by intraperitoneal (IP) route to 7 weeks-old male Swiss mice (n = 2) at 10, 20, 40, 50, or 80 mg/kg by unique injection. […] Compounds were administered in their hydrochloride salt forms. Mice were then observed closely for the next one hour, then every hour for 8 h. Observations were continued for 72 h for signs of pain or toxicity such as change in the behavior and in the activity in the cage (decreased locomotion) or change in the appearance (curved back, eyes half-closed, bristle hair, hips hollowed out). In vivo toxicity of compound OR0642 at 40 and 80 mg/kg was also assessed in the NOD-SCID-IL2Rγc null (NSG) mice model for 2 weeks in the presence and absence of dT to confirm the safety of the compound. […]. Blood samples were collected and spun at 10,000 × g prior to collecting the plasma supernatants. All plasma samples were frozen at −80 °C before sample processing. 13 μl of each plasma sample was mixed with 33 μl of acetonitrile to precipitate proteins and extract the compound. Samples were vortexed for 5 min and then placed in an ultrasonic bath for 1 min. The precipitated proteins were sedimented by centrifugation (15,000 × g, 5 min, 16 °C). Supernatants were transferred to a microplate to be analyzed by LC–MS/MS. All samples were analyzed with a UHPLC coupled to a Shimadzu LC-MS 8030 triple quadrupole. The solutions of a standard range, prepared with plasma from untreated mice, were analyzed in the same series of injections.

[1] = system: CCRF-CEM-CRISPR-sgRNA-dCK− cell line; test: Proliferation of CCRF-CEM CRISPR-Cas9 cell line deficient for dCK; type: cell-based, human; conditions: dT 200 µM, dC 1 µM
Description: CCFR-CEM cells (obtained from O. Hermine laboratory, Paris, France) were grown at 37 °C in RPMI 1640 with L-glutamine, supplemented with 10% heat-inactivated fetal calf serum. The experiments were carried out on 96-well plates under the following conditions: 14,000 cells per well, RPMI 1640 culture medium supplemented with 10% heat-inactivated fetal calf serum, 200 μM of dT, 1 μM of dC and a range of dilutions of each compound ranging from 40 μM to 10 pM, depending on the activity of the compounds (final 0.2% DMSO). Cells were incubated for 72 h under these different conditions and finally, incubated with 10 µl/well of CellTiter-Blue reagent (Promega) for 4 h at 37 °C. The amount of reduced dye formed by metabolically active cells was quantified by its fluorescence measured at 560 nm (excitation) and 590 nm (emission) in a microplate reader (CLARIOstar, BMG Labtech). A blank well without cells was used as a background control. Each experiment was performed at least three times (with technical triplicates) and data are presented as the mean ± SD.
Stable CCRF-CEM-CRISPR-sgRNA-dCK^− cell line was established by lentiviral transduction using purified lentiviral particles (Horizon Discovery) and blasticidin selection (10 µg/ml). […]

human c-KIT = target: T1, human c-KIT (Homo sapiens, UniProt P10721); test: c-KIT cellular assay: Ba/F3 proliferation with SCF, without IL3; type: cell-based; conditions: for Cell proliferation of the IL-3 dependent Ba/F3 cell line Mean (% prolif): SCF, no IL3, 48 h; for IC50 ratio of IL3/SCF (unspecific/c-KIT): Ba/F3 expressing WT human c-KIT, 72 h
T1 construct: expressed in transfected cells; host or cells: Ba/F3 (murine IL3-dependent pro-B cell line)
T1 sequence (P10721 26-976): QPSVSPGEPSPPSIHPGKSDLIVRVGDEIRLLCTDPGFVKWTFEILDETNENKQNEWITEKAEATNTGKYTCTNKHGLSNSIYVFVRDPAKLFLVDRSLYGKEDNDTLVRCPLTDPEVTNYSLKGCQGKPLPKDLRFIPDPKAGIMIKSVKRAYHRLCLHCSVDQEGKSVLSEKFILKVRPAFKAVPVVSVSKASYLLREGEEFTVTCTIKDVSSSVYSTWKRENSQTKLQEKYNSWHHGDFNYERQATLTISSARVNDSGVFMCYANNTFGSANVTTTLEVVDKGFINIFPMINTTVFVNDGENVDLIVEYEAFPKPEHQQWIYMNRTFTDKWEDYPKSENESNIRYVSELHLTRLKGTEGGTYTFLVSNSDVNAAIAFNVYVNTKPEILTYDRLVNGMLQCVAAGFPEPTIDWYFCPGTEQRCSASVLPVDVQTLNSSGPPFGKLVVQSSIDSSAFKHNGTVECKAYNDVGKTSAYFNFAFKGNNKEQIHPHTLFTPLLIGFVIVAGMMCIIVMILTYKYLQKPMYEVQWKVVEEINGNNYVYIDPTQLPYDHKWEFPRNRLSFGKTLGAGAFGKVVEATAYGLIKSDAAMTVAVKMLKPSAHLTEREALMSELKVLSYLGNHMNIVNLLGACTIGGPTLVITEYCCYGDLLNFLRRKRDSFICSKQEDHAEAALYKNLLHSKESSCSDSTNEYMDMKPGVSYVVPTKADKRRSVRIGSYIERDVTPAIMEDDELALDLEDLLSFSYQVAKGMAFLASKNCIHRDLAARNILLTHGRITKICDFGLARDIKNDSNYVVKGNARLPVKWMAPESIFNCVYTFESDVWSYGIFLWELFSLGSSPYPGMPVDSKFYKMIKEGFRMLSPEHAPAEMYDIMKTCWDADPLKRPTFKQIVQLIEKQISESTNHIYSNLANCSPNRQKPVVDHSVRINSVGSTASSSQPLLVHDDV
Description: The generation of Ba/F3 cells expressing wild-type human c-KIT has been previously described by us[55],[56]. For the assay of Ba/F3 cell proliferation, plates were seeded with a total of 10,000 cells per well. Cells were supplemented, or not, with either 0.1% IL3 or 250 ng/ml murine SCF. IL3 was obtained from conditioned medium from X63-omIL-3 cells (obtained from Fritz Melchers laboratory (Berlin, Germany)) and murine SCF, which activates c-KIT, was purified from the conditioned medium of SCF-producing CHO cells. Cells were supplemented with compounds at varying concentrations (final 0.1% DMSO). […] The amount of reduced dye formed by metabolically active cells was quantified by its fluorescence measured at 560 nm (excitation) and 590 nm (emission) in a microplate reader (FLUOstar Omega, BMG Labtech). A blank well without cells was used as a background control. Each experiment was performed at least three times (with technical triplicates) and data are presented as the mean ± SD.

PDX UPNT730 = test: Ex vivo testing on PDX samples (viability, flow cytometry, 72 h), with or without OP9-DL1 monolayer; type: cell-based, human; conditions: for viability at 12 µM / viability at 37 µM / viability at 111 µM / viability at 333 µM / viability at 1000 µM / viability at 3000 µM: Homo sapiens, read-out: Cell viability, Mean (% viab); for viability at 12 µM: dT 12 µM; for viability at 37 µM: dT 37 µM; for viability at 111 µM: dT 111 µM; for viability at 333 µM: dT 333 µM; for viability at 1000 µM: dT 1000 µM; for viability at 3000 µM: dT 3000 µM
From the text: Bone marrow-infiltrating blasts from terminally mice bearing PDX as stated above were collected as established before. Extensive analysis (immunophenotype and molecular analysis) of matched primary and PDX samples used in the study are shown in Supplementary Table 7, showing that they remain stable. Briefly, after euthanasia, bone marrows from tibiae, hips, femurs, and vertebrae were isolated and blasts collected for subsequent ex vivo experiments. All samples used contained ≥90% blasts as determined by flow cytometry. For the cytotoxic evaluation of OR0642, blasts were then stained with CellTraceTM Violet (CTV, Thermo Fisher Scientific, C34557) prior seeding at 10,000 cells into 96-well plates under normal conditions or pre-plated with OP9-DL1 cells. Cells were cultured in RPMI 1640 supplemented with 20% fetal bovine serum, 50 µg/ml streptomycin, 50 UI penicillin, 4 mM L-glutamine, and a cocktail of human cytokines as previously established (50 ng/ml human stem cell factor, 20 ng/ml hFLT3-L, 10 ng/ml hIL-7 and 20 nM insulin (Miltenyi Biotec))[28]. […] Rescue by dC supplementation (1 µM) was also evaluated. OR0642 was then tested alone, or combined with dT or dT + dC at two concentrations (0.25 and 0.5 µM). Cell viability was evaluated by flow cytometry 72 h post-treatment. Proliferation indexes were calculated using the detection of CTV in the control replicates (DMSO) and the proliferation modeling tool of FlowJo™ Software 10.7.1 (BD Life Sciences). A control peak of undivided CTV-stained cells was systematically used to set the undivided fraction.

Row | Cell proliferation of the IL-3 dependent Ba/F3 cell line Mean (% prolif) (human c-KIT; 3.7 nM) | Cell proliferation of the IL-3 dependent Ba/F3 cell line Mean (% prolif) (human c-KIT; 11 nM) | Cell proliferation of the IL-3 dependent Ba/F3 cell line Mean (% prolif) (human c-KIT; 33 nM) | Cell proliferation of the IL-3 dependent Ba/F3 cell line Mean (% prolif) (human c-KIT; 99 nM) | Cell proliferation of the IL-3 dependent Ba/F3 cell line Mean (% prolif) (human c-KIT; 296 nM) | Cell proliferation of the IL-3 dependent Ba/F3 cell line Mean (% prolif) (human c-KIT; 889 nM) | Cell proliferation of the IL-3 dependent Ba/F3 cell line Mean (% prolif) (human c-KIT; 2667 nM) | Cell proliferation of the IL-3 dependent Ba/F3 cell line Mean (% prolif) (human c-KIT; 8000 nM) | Cell proliferation of the IL-3 dependent Ba/F3 cell line Mean (% prolif) (human c-KIT; 24000 nM) | IC50 ratio of IL3/SCF (unspecific/c-KIT) (human c-KIT) | Compound | further results
1 |  |  |  |  |  |  |  |  |  |  | CCCN(c1nc(-c2nc(N)cc(N)n2)cs1)c1cc(-c2ccc(CCN3CCN(C)CC3)nc2)ccc1C [OR0602] | in vivo tolerance (Swiss male mice): unacceptable side effects
2 |  |  |  |  |  |  |  |  |  |  | CCCN(c1nc(-c2nc(N)cc(N)n2)cs1)c1cc(-c2ccc(S(=O)(=O)N3CCN(C)CC3)cc2C(F)(F)F)ccc1C [OR0642] | effect on cell proliferation [1]: did not affect cell proliferation
3 | 98.5% | 97.1% | 99.7% | 87.3% | 83.7% | 66.8% | 24.0% | 0.4% | 0.35% | 7.6 | Cc1ccc(NC(=O)c2ccc(CN3CCN(C)CC3)cc2)cc1Nc1nc(-c2nccc(N)n2)cs1 [dCKi1] | 
4 | 97.2% | 96.0% | 97.1% | 91.8% | 94.5% | 86.6% | 76.3% | 48.8% | 6.7% | 2.7 | Cc1ccc(NC(=O)c2ccc(CN3CCN(C)CC3)cc2)cc1Nc1nc(-c2nc(N)cc(N)n2)cs1 [dCKi2, N-(3-((4-(4,6-diaminopyrimidin-2-yl)thiazol-2-yl)amino)-4-methylphenyl)-4-((4-methylpiperazin-1-yl)methyl)benzamide] | 
5 |  |  |  |  |  |  |  |  |  |  | Cc1cn([C@H]2C[C@H](O)[C@@H](CO)O2)c(=O)[nH]c1=O [dT, thymidine] | viability at 12 µM (PDX UPNT730; UPNT730 + OP9-DL1): 100%; viability at 37 µM (PDX UPNT730; UPNT730 + OP9-DL1): 96.3%; viability at 111 µM (PDX UPNT730; UPNT730 + OP9-DL1): 86.4%; viability at 333 µM (PDX UPNT730; UPNT730 + OP9-DL1): 82%; viability at 1000 µM (PDX UPNT730; UPNT730 + OP9-DL1): 72.2%; viability at 3000 µM (PDX UPNT730; UPNT730 + OP9-DL1): 72.9%; viability at 12 µM (PDX UPNT730; UPNT730): 100%; viability at 37 µM (PDX UPNT730; UPNT730): 106%; viability at 111 µM (PDX UPNT730; UPNT730): 107%; viability at 333 µM (PDX UPNT730; UPNT730): 109%; viability at 1000 µM (PDX UPNT730; UPNT730): 102%; viability at 3000 µM (PDX UPNT730; UPNT730): 105%; Response at dT100 µM (PDX UPNT730; PDX 730, dT 100 µM): 17; sensitivity (PDX UPNT730; proliferative conditions (OP9-DL1 monolayer)): sensitive
